Data: the NIST ThermoML archive (doi:10.1016/j.jct.2010.07.016)

How the values were obtained:
[1] = excess molar enthalpy (molar enthalpy of mixing); xn = mol fraction of the nth substance listed; details: 308.15 K, 101 kPa, Liquid, Drop calorimeter
[2] = xn = mol fraction of the nth substance listed; details: 308.15 K, 101 kPa, Liquid; for excess molar volume: Direct dilatometry; for speed of sound: Linear variable-path acoustic interferometer

Cc1ccccc1C [1,2-dimethylbenzene] + C1CCOCC1
Details | excess molar enthalpy [kcal/mol] | excess molar volume [m3/mol] | speed of sound [m/s]
[1], x2 = 0.0587 | -0.00636 | – | –
[1], x2 = 0.0691 | -0.00729 | – | –
[1], x2 = 0.0838 | -0.00851 | – | –
[1], x2 = 0.1451 | -0.0123 | – | –
[1], x2 = 0.1809 | -0.0137 | – | –
[1], x2 = 0.2454 | -0.0147 | – | –
[1], x2 = 0.3023 | -0.0141 | – | –
[1], x2 = 0.3872 | -0.0111 | – | –
[1], x2 = 0.4425 | -0.00817 | – | –
[1], x2 = 0.5752 | 0.000574 | – | –
[1], x2 = 0.647 | 0.00526 | – | –
[1], x2 = 0.7443 | 0.0101 | – | –
[1], x2 = 0.8495 | 0.0112 | – | –
[1], x2 = 0.9437 | 0.00638 | – | –
[2], x2 = 0.0536 | – | -1.2e-08 | –
[2], x2 = 0.0643 | – | -1.4e-08 | –
[2], x2 = 0.0805 | – | -1.7e-08 | –
[2], x2 = 0.0854 | – | – | 1319
[2], x2 = 0.1127 | – | -2.3e-08 | –
[2], x2 = 0.1494 | – | – | 1315
[2], x2 = 0.1816 | – | -3.4e-08 | –
[2], x2 = 0.2134 | – | – | 1309
[2], x2 = 0.2834 | – | – | 1303
[2], x2 = 0.2975 | – | -4.7e-08 | –
[2], x2 = 0.3778 | – | – | 1293
[2], x2 = 0.3954 | – | -5.3e-08 | –
[2], x2 = 0.4756 | – | – | 1281
[2], x2 = 0.4935 | – | -5.5e-08 | –
[2], x2 = 0.5132 | – | – | 1277
[2], x2 = 0.52 | – | -5.4e-08 | –
[2], x2 = 0.5642 | – | -5.3e-08 | –
[2], x2 = 0.5668 | – | – | 1270
[2], x2 = 0.6124 | – | – | 1265
[2], x2 = 0.6421 | – | -4.8e-08 | –
[2], x2 = 0.7035 | – | – | 1254
[2], x2 = 0.7314 | – | -4e-08 | –
[2], x2 = 0.7866 | – | – | 1245
[2], x2 = 0.8645 | – | – | 1237
[2], x2 = 0.8832 | – | -1.9e-08 | –
[2], x2 = 0.9228 | – | -1.3e-08 | –
[2], x2 = 0.9344 | – | – | 1230
[2], x2 = 0.9545 | – | – | 1228

C1CCOCC1 [tetrahydropyran] + c1ccccc1
Details | excess molar enthalpy [kcal/mol] | excess molar volume [m3/mol] | speed of sound [m/s]
[1], x1 = 0.0484 | -0.00779 | – | –
[1], x1 = 0.0757 | -0.0123 | – | –
[1], x1 = 0.0978 | -0.016 | – | –
[1], x1 = 0.1432 | -0.0235 | – | –
[1], x1 = 0.2425 | -0.0384 | – | –
[1], x1 = 0.311 | -0.0467 | – | –
[1], x1 = 0.385 | -0.053 | – | –
[1], x1 = 0.4982 | -0.0565 | – | –
[1], x1 = 0.6013 | -0.0531 | – | –
[1], x1 = 0.6875 | -0.0456 | – | –
[1], x1 = 0.7073 | -0.0434 | – | –
[1], x1 = 0.7832 | -0.0334 | – | –
[1], x1 = 0.8501 | -0.0233 | – | –
[1], x1 = 0.923 | -0.0117 | – | –
[2], x1 = 0.0555 | – | – | 1256
[2], x1 = 0.0684 | – | -4.9e-08 | –
[2], x1 = 0.1029 | – | -6.9e-08 | –
[2], x1 = 0.1165 | – | – | 1253
[2], x1 = 0.1472 | – | – | 1251
[2], x1 = 0.1673 | – | -1.01e-07 | –
[2], x1 = 0.1835 | – | -1.08e-07 | –
[2], x1 = 0.2223 | – | – | 1248
[2], x1 = 0.243 | – | -1.29e-07 | –
[2], x1 = 0.2728 | – | – | 1246
[2], x1 = 0.3143 | – | -1.45e-07 | –
[2], x1 = 0.3751 | – | – | 1241
[2], x1 = 0.4085 | – | -1.56e-07 | –
[2], x1 = 0.4395 | – | – | 1239
[2], x1 = 0.4821 | – | – | 1237
[2], x1 = 0.5291 | – | -1.52e-07 | –
[2], x1 = 0.5313 | – | – | 1238
[2], x1 = 0.599 | – | -1.42e-07 | –
[2], x1 = 0.6223 | – | – | 1233
[2], x1 = 0.6543 | – | -1.3e-07 | –
[2], x1 = 0.681 | – | – | 1231
[2], x1 = 0.7321 | – | – | 1230
[2], x1 = 0.7452 | – | -1.05e-07 | –
[2], x1 = 0.7823 | – | -9.3e-08 | –
[2], x1 = 0.8253 | – | – | 1228
[2], x1 = 0.8754 | – | -5.7e-08 | –
[2], x1 = 0.9123 | – | – | 1226
[2], x1 = 0.9539 | – | -2.3e-08 | –
